Test results published in PubChem BioAssay (NCI).
“And” between values parts separate entries of the source, which are not always exact repeats. Equal values may be shown once.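 Each compound was tested at five concentrations against cells in 96-well plates for 48 hours. GI50 = concentration required for 50% inhibition of growth. Definition used: TGI = concentration required for complete inhibition of growth.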 Where a SMILES comes first, the peptide text is derived from it. The star is where a group is joined. Cbz = O=C(OCc1ccccc1)*; Boc = CC(C)(C)OC(=O)*; Bn = c1ccc(C*)cc1

Legend:
Test in all cases: growth of human tumour cells (NCI), 48 h
K-562 leukemia = test system: K-562 leukemia
HCC-2998 colon = test system: HCC-2998 colon
M19-MEL melanoma = test system: M19-MEL melanoma
SNB-78 CNS = test system: SNB-78 CNS
DMS 114 small cell lung = test system: DMS 114 small cell lung
DLD-1 colon = test system: DLD-1 colon
KM20L2 colon = test system: KM20L2 colon
HOP-18 NSCLC = test system: HOP-18 NSCLC
DMS 273 small cell lung = test system: DMS 273 small cell lung
LXFL 529 NSCLC = test system: LXFL 529 NSCLC
XF 498 CNS = test system: XF 498 CNS
RXF-631 renal = test system: RXF-631 renal

SMILES | TGI (K-562 leukemia) | TGI (HCC-2998 colon) | other results
Cc1nn(C(=O)c2ccncc2)c2c1C(c1ccc(Cl)cc1)SC(N)=N2 (stereo not given) | > 10 µM | > 10 µM | 
CCCc1c(O)c(=O)c2c(OC)cc(OC)c3c4c(OC)cc(OC)c5c(=O)c(O)c(CCC)c(c1c23)c54 | 0.589 µM | 17.1 µM | 
O=C1C=CC(=O)c2c(NCC3CC3)ccc(NCC3CC3)c21 | 53.9 µM | > 100 µM | 
COc1ccc(C(=O)/C=C/c2ccc(OCCSCCCCCCCCCCSCCOc3ccc(/C=C/C(=O)c4ccc(OC)cc4)cc3)cc2)cc1 | > 100 µM | > 100 µM | 
NC1=NNC2(C(=O)N1)c1ccccc1-c1ccccc12 | > 10 µM | > 10 µM | 
CC(C)(C)OC(=O)NC(Cc1ccc(OCc2ccccc2)cc1)C(=O)NC(CCCCNC(=O)OCc1ccccc1)C(=O)O (stereo not given) (Boc-Tyr(Bn)-Lys(Cbz)-OH; configuration not given here) | > 100 µM | > 100 µM | 
COc1ccc(N(C)Sc2ccccc2)cc1 | > 100 µM | > 100 µM | TGI (M19-MEL melanoma): > 100 µM; TGI (SNB-78 CNS): > 100 µM; TGI (DMS 114 small cell lung): > 100 µM; TGI (DLD-1 colon): > 100 µM; TGI (KM20L2 colon): > 100 µM; TGI (HOP-18 NSCLC): > 100 µM; TGI (DMS 273 small cell lung): > 100 µM; TGI (LXFL 529 NSCLC): > 100 µM; TGI (XF 498 CNS): 96.6 µM
O=c1[nH]c(=O)n(COCCO)c2ccc(Br)cc12 | > 100 µM |  | 
O/N=C/c1cc2c(cc1Br)OCO2 | > 100 µM | > 100 µM | TGI (M19-MEL melanoma): > 100 µM; TGI (RXF-631 renal): > 100 µM; TGI (SNB-78 CNS): > 100 µM; TGI (DLD-1 colon): > 100 µM; TGI (KM20L2 colon): > 100 µM; TGI (HOP-18 NSCLC): > 100 µM; TGI (DMS 273 small cell lung): > 100 µM; TGI (LXFL 529 NSCLC): > 100 µM
O=C(Cc1ccccc1)NN1C(=O)C(Cl)C1c1ccc([N+](=O)[O-])cc1 (stereo not given) | > 100 µM | > 100 µM | TGI (M19-MEL melanoma): > 100 µM; TGI (SNB-78 CNS): > 100 µM; TGI (DMS 114 small cell lung): > 100 µM; TGI (DLD-1 colon): > 100 µM; TGI (KM20L2 colon): > 100 µM; TGI (HOP-18 NSCLC): > 100 µM; TGI (DMS 273 small cell lung): > 100 µM; TGI (LXFL 529 NSCLC): > 100 µM; TGI (XF 498 CNS): > 100 µM
COc1cc(NCc2ccc3nc(-c4ccccc4)c(N)nc3c2)cc(OC)c1OC | > 100 µM | > 100 µM | 
C=C1CCC2CC1[C@@H](C(=O)c1c[nH]c3ccccc13)NC2(C)C (stereo not given in full) | > 37.5 µM | 32.4 µM | 
c1ccc(-c2ccc(-c3cc4ccccc4[nH]3)cc2)cc1 |  | > 100 µM | 
COC(=O)[C@@H](O)[C@]1(C(=O)OC)C2O[C@@H](OC)[C@@H]1CCCCCC[C@H]2O | > 100 µM | > 100 µM | 
O=C(O)C12C3C4C1C1C2C3C1(Br)C41OCCO1 (stereo not given) | > 100 µM | > 100 µM | TGI (M19-MEL melanoma): > 100 µM; TGI (SNB-78 CNS): > 100 µM; TGI (DMS 114 small cell lung): > 100 µM; TGI (DLD-1 colon): > 100 µM; TGI (KM20L2 colon): > 100 µM; TGI (HOP-18 NSCLC): > 100 µM; TGI (DMS 273 small cell lung): > 100 µM; TGI (LXFL 529 NSCLC): > 100 µM; TGI (XF 498 CNS): > 100 µM
CCN(CCCN(CC)C(=O)Nc1ccccc1)C(=O)Nc1ccccc1 | > 100 µM | > 100 µM | 
O=C1c2cc3c(cc2CC12Cc1cc4c(cc1C2=O)CCC4)CCC3 | > 100 µM | > 100 µM | 
CC(=O)CCC(=O)C(=[N+]=[N-])S(=O)(=O)c1ccccc1 | > 100 µM | > 100 µM | 
OCC1OC(Oc2cc(O)cc(/C=C/c3ccc(O)cc3)c2)C(O)C(O)C1O (stereo not given) | > 100 µM |  | 

SMILES | TGI (K-562 leukemia) | TGI (HCC-2998 colon) | other results
CCOP(=O)(OCC)C(Nc1cccc([N+](=O)[O-])c1)c1ccccc1 (stereo not given) | > 100 µM | > 100 µM | 
Cc1nc2ccc(F)cc2c2c1CCO2 | > 100 µM | > 100 µM | 
CCO[C@@H]1CCC(S(=O)c2ccc(C)cc2)=CO1 (stereo not given in full) | > 100 µM | > 100 µM | 
CSc1nc(-c2ccc(C)cc2)c(C#N)c(=O)[nH]1 | > 100 µM | > 100 µM | 
CN(C(=O)c1ccc(Cl)cc1)C(=S)N1CCN(c2ccccn2)CC1 | > 100 µM |  | TGI (M19-MEL melanoma): > 100 µM; TGI (SNB-78 CNS): > 100 µM; TGI (DMS 114 small cell lung): > 100 µM; TGI (DLD-1 colon): > 100 µM; TGI (KM20L2 colon): > 100 µM; TGI (HOP-18 NSCLC): > 100 µM; TGI (DMS 273 small cell lung): > 100 µM; TGI (LXFL 529 NSCLC): > 100 µM
COc1cc(Cl)cc(N(O)C(C)=O)c1OCc1ccccc1 | > 100 µM | > 100 µM | TGI (M19-MEL melanoma): > 100 µM; TGI (SNB-78 CNS): > 100 µM; TGI (DMS 114 small cell lung): 71.5 µM; TGI (DLD-1 colon): > 100 µM; TGI (KM20L2 colon): > 100 µM; TGI (HOP-18 NSCLC): > 100 µM; TGI (DMS 273 small cell lung): > 100 µM; TGI (LXFL 529 NSCLC): > 100 µM; TGI (XF 498 CNS): > 100 µM
CCOC(=O)NC(C(=O)OCC)C(F)(F)F (stereo not given) | > 100 µM | > 100 µM | 
Cc1cccc2c(=O)c3c(O)cc(O)cc3[nH]c12 | > 10 µM | > 10 µM | 
COC(=O)C12OC(C)(C(CC(=O)OC(C)(C)C)C1=O)C1C(=O)N(c3ccccc3)C(=O)C12 (stereo not given) | > 100 µM | > 100 µM | 
N#Cc1c(-c2ccc(Cl)cc2)c(C#N)c(=O)n(NS(=O)(=O)c2ccccc2)c1S | > 100 µM |  | 
N#CCCSC1SC(=C2SC3=C(SCCS3)S2)SC1SCCC#N (stereo not given) | > 100 µM | > 100 µM | 
C=CCOc1ccc(/C(N=Nc2ccccc2)=N/NC(=O)c2ccccc2)cc1OC |  | > 100 µM | 
COc1cc(C[C@H]2C(=O)OC[C@@H]2Cc2ccc(OC)c(OC)c2)cc(OC)c1 | > 100 µM | > 100 µM | 
O=c1c2c(c1=O)C1(SCCCS1)c1cc(Cl)ccc1O2 | > 100 µM | > 100 µM | 
COc1cc(C2c3cc4c(cc3[C@@H](NCCN3CCCCC3)C3COC(=O)[C@H]23)OCO4)cc(OC)c1O (stereo not given in full) | 20.8 µM and 18 µM | 1.97 µM and 2.37 µM | TGI (M19-MEL melanoma): 5.4 µM and 4.14 µM; TGI (SNB-78 CNS): 8.09 µM and 23.3 µM; GI50 (DMS 114 small cell lung): 0.51 µM and 1.64 µM; TGI (DMS 114 small cell lung): 10.9 µM and 16 µM; TGI (DLD-1 colon): 6.78 µM and 10.2 µM; TGI (KM20L2 colon): 8.14 µM and 11.5 µM; TGI (HOP-18 NSCLC): 3.73 µM and 29.4 µM; TGI (DMS 273 small cell lung): 1.27 µM and 1.44 µM; TGI (LXFL 529 NSCLC): 14.5 µM and 15.2 µM; GI50 (XF 498 CNS): 0.585 µM and 1.27 µM; TGI (XF 498 CNS): 4.01 µM and 4.2 µM; GI50 (HCC-2998 colon): 0.427 µM and 1.09 µM
COc1ccc(Cc2c(N)[nH]c(=O)n(C)c2=O)cc1 | > 100 µM | > 100 µM | 
COc1cc2c(cc1OC)CC(=O)c1cc(OC)c(OC)cc1/C=C\2 | > 12.5 µM |  | 
CCN1CN(c2ccccc2)C2(CCN(CCCSc3ccc(F)cc3)CC2)C1=O | 37.1 µM |  | 
